Results taken from patent US8642657B2 (Gruenenthal GmbH, priority 2003, dated 2014).

Columns and labels:
rat VR1 [1] = target: T1, rat VR1 (Rattus norvegicus, UniProt O35433); settings: rat VR1 expressed in CHO cells; cited from earlier work
T1 construct: expressed in transfected cells

rat VR1 [2] = target: T1, rat VR1; assay: [3H]resiniferatoxin (RTX) competition binding assay, VR1-transfected CHO cells
Summary of the method: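 Competition with [3H]RTX (50-100 pM) ran 60 min at 37° C using whole VR1-induced CHO cells in BSA-containing DPBS, nonspecific defined by 100 nM cold RTX. After centrifugation, pellet radioactivity counted by scintillation; Hill fits gave Ki and cooperativity.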

rat VR1 [3] = target: T1, rat VR1; assay: 45Ca2+-uptake assay in CHO/VR1 cells, antagonism of capsaicin-stimulated uptake; assay type: cell-based; settings: 45Ca2+ uptake stimulated by 50 nM capsaicin

T1 sequence (O35433 whole entry): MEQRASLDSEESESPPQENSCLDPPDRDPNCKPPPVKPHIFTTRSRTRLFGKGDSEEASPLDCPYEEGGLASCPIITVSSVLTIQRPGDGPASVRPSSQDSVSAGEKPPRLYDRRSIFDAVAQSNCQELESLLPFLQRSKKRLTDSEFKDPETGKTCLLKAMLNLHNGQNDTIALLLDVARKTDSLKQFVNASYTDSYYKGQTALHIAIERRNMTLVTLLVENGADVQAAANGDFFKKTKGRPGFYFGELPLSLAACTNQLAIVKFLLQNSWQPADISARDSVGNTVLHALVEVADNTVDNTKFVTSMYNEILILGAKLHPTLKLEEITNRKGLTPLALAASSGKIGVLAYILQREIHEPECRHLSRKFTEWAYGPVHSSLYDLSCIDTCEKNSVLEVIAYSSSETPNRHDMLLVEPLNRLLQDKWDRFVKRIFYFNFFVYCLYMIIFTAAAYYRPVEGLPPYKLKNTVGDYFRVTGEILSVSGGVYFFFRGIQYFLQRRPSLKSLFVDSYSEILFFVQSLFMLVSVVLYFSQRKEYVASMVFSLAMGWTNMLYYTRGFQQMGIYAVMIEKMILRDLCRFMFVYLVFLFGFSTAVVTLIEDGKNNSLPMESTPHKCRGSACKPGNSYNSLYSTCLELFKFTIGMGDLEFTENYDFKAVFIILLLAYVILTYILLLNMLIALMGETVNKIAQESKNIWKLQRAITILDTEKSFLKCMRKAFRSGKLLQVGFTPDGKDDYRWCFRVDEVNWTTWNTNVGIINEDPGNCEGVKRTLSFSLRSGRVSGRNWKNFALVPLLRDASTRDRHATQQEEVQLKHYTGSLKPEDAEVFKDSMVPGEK

Structure (SMILES) | agonism/antagonism character (rat VR1 [1]) | Ki (rat VR1 [2]; competition with [3H]RTX, rat VR1 in CHO cells, read-out: Ki (nM) Binding Affinity) [nM] | Ki (rat VR1 [3]) [nM] | melting point [°C] | Ki (rat VR1 [2]) [nM]
Cc1ccc(CC(CNC(=S)NCc2ccc(NS(C)(=O)=O)cc2)COC(=O)C(C)(C)C)cc1C (stereo not shown) [Compound 1, N-[2-(3,4-dimethylbenzyl)-3-pivaloyloxypropyl]-N′-[4-(methylsulfonylamino)benzyl]thiourea] | partial agonism |  |  |  | 
CC(C(=O)NCC=C(c1ccc(F)cc1)c1ccc(F)cc1)c1ccc(NS(C)(=O)=O)c(F)c1 (stereo not shown) [4-27, N-[3,3-Di(4-fluorophenyl)-2-propenyl]-2-[3-fluoro-4-(methylsulfonylamino)phenyl]propionamide] |  | 43.3 | 29.3 | 57 to 60 | 
COc1cc(C2(C(=O)NCCCc3ccc(C)c(C)c3)CC2)ccc1NS(C)(=O)=O [12-6, N-[3-(3,4-Dimethylphenyl)propyl]-1-[3-methoxy-4-(methylsulfonylamino)phenyl]cyclopropanecarboxamide] |  |  | 1240 | 88 to 89 | 1700
